The results in this text go back to patent publication US20070010399A1, “Crop plant-compatible herbicidal compositions comprising herbicides and safeners” (priority 2005, published 2007).

Holding throughout (format): in vivo
In data set [1] the test system is corn. Particulars: seed treatment, post-emergence; reduction of corn damage by seed dressing with A3 0.5 g/kg; printed in the line of the herbicide alone.
Data set [2] has as its system corn. Put plainly: Herbicidal pre-emergence action: damage to corn. The text has this:
Seeds of monocotyledonous and dicotyledonous weed and crop plants are placed into sandy loam in cardboard pots and covered with soil. The herbicidal compositions according to the invention, formulated in the form of wettable powders or emulsion concentrates, are then applied as an aqueous suspension or emulsion with a water application rate of 600 to 800 l/ha (converted) in different dosages to the surface of the covering soil. After the treatment, the pots are placed in a greenhouse and kept under good growth conditions for the weeds. Optical scoring of the damage to the plants or the emergence damage is carried out after emergence of the test plants after a test period of 3 to 4 weeks, by comparison with untreated controls.
(§1) The herbicidal activity or damage is in each case stated in percent: 100% activity=the plants have died, 0% activity=like untreated control plants. The abbreviation “a.i.” means active ingredient.

Data set [3] has as its system corn. As to the method:
Seeds of monocotyledonous and dicotyledonous weed and crop plants are placed into sandy loam in wood fiber pots or in plastic pots, covered with soil and cultivated in a greenhouse, including during the vegetation period outdoors outside of the greenhouse, under good growth conditions. 2-3 weeks after sowing, the test plants are treated at the one- to three-leaf stage. The herbicidal compositions according to the invention, formulated as wettable powders (WP) or liquid (EC) are, in various dosages with a water application rate of 300 l/ha (converted), with added wetting agent (0.2 to 0.3%), sprayed onto the plants and the surface of the soil. 3 to 4 weeks after the treatment of the test plants, the effect of the preparations is rated visually in comparison to untreated controls.
The abbreviation “a.i.” means active ingredient.

The test system of data set [4] is corn. Put plainly: Treatment of corn seed with safener, herbicide pre-emergence. Particulars: reduction of corn damage by seed dressing with A3 0.5 g/kg, printed in the line of the herbicide alone. As to the method:
Corn seed is treated (dressed) with various amounts of a safener and then placed-in sandy loam and covered with soil. The herbicides, formulated as emulsifiable concentrates or dust, are applied using a water application rate of 300 to 800 l/ha (converted) at various dosages to the surface of the covering soil. The optical scoring of the damage to the useful plants is carried out 3 to 5 weeks after the treatment.
as §1
In Tables 3 and 4, the dosage of the herbicide (component B) is stated in gram per hectare and that of the safener (component A) is stated in gram per kilogram of seed.

[5] abbreviates: pre-emergence, reduction of corn damage by adding safener A3 to the herbicide, printed in the line of the herbicide alone, spans both lines.
Setting [6] is: post-emergence, reduction of corn damage by adding safener A3 to the herbicide, printed in the line of the herbicide alone, spans both lines.

Like-named read-outs stand apart in the source and are kept apart here.

With `CCCOc1nn(C(=O)[N-]S(=O)(=O)c2ccccc2C(=O)OC)c(=O)n1C.[Na+]` [Component B1.23, propoxycarbazone], the “Damage reduced by” value in the data set with corn [1] was determined as 68%.
As for `CCC(CC)Nc1c([N+](=O)[O-])cc(C)c(C)c1[N+](=O)[O-]` [Component B10.1, pendimethalin], the “Damage reduced by” value with corn [2] (setting [5]) amounted to 54%.
Regarding `COc1cc(OC)nc(NC(=O)NS(=O)(=O)N(C)S(C)(=O)=O)n1` [Component B1.25, amidosulfuron], the “Damage reduced by” value in the data set on corn [3] (in vivo) amounted to 80%.
Still for that read-out and setting: as for `CCS(=O)(=O)c1cccnc1S(=O)(=O)NC(=O)Nc1nc(OC)cc(OC)n1` [Component B1.36, rimsulfuron], the figure is 100%.
For the compound `CS(=O)(=O)c1ccc(C(=O)C2C(=O)CCCC2=O)c([N+](=O)[O-])c1` [Component B2.3, mesotrione], the “Damage reduced by” value in the data set with corn [3] (setting [6]) is 83%.
For the compound `Cc1cnc(C2=NC(=O)C(C)(C(C)C)N2)c(C(=O)O)c1` (stereo not drawn) [Component B1.19, imazapic], the “Damage reduced by” value in the data set with corn [3] (in vivo) worked out at 33%.
Same read-out and setting: as for `COc1c(Cl)ccc(Cl)c1C(=O)O` [Component B7.1, dicamba], the figure is 100%.
Consider `COc1cc(OC)nc(NC(=O)NS(=O)(=O)c2nc(C(F)(F)F)ccc2C(=O)O)n1` [Component B1.31, flupyrsulfuron], for which the “Damage reduced by” value in the data set with corn [3] (setting [6]) and with corn [1] was 75% each time.
For `COc1nc(C)nc(NC(=O)NS(=O)(=O)c2ccsc2C(=O)O)n1` [Component B1.9, thifensulfuron], the “Damage reduced by” value with corn [2] (setting [5]) is given as 100%.
For the compound `COc1nc(C)nc(NC(=O)NS(=O)(=O)c2cc(I)ccc2C(=O)O)n1` [Component B1.3, iodosulfuron], the “Damage reduced by” value in the data set with corn [2] (in vivo) is 69%.
Turning to `COc1nc(C)nc(NC(=O)NS(=O)(=O)c2ccccc2Cl)n1` [Component B1.26, chlorsulfuron], the “Damage reduced by” value with corn [3] (in vivo) is on record as 86%.
Take `CCOc1ccccc1OS(=O)(=O)NC(=O)Nc1nc(OC)cc(OC)n1` [Component B1.13, ethoxysulfuron]: the “Damage reduced by” value with corn [2] (in vivo) and in the data set on corn [3] (in vivo) was 50% throughout.
For `CCOc1nc(F)cc2nc(S(=O)(=O)Nc3c(Cl)cccc3C(=O)OC)nn12` [Component B1.11, cloransulam-methyl], the entries for the “Damage reduced by” value in the data set with corn [2] (in vivo) and in the data set with corn [3] (in vivo) were 43% and 50%, respectively.
As to `COc1cc(OC)nc(NC(=O)NS(=O)(=O)c2ncccc2C(=O)N(C)C)n1` [Component B1.6, nicosulfuron], the “Damage reduced by” value in the data set on corn [2] (setting [5]) worked out at 67%.
As for `CS(=O)(=O)c1ccc(C(=O)C2C(=O)CCCC2=O)c(Cl)c1` [Component B2.1, sulcotrione], the “Damage reduced by” value in the data set on corn [3] (setting [6]) is reported as 77%.
In the case of `COc1nc(C)nc(=NC(=O)NS(=O)(=O)c2ccccc2C(=O)O)[nH]1` [Component B1.5, metsulfuron], the “Damage reduced by” value in the data set with corn [3] (setting [6]) and with corn [1] was 80% in each case.
Regarding `CCCN(CCC)C(=O)SCC` [Component B4.1, EPTC], the “Damage reduced by” value with corn [3] (setting [6]) was 62%.
The same measure, in the same setting: under `Cc1c(C(=O)c2cnn(C)c2O)ccc(S(C)(=O)=O)c1C1=NOCC1` [Component B2.4, topramezone] stands 64%.
Turning to `COc1nc(C)nc(NC(=O)NS(=O)(=O)c2ccccc2CCC(F)(F)F)n1` [Component B1.8, prosulfuron], in the data set on corn [2] (in vivo), the “Damage reduced by” value is reported as 67%.
With `COCc1cnc(C2=NC(C)(C(C)C)C(=O)N2)c(C(=O)O)c1` (stereo not drawn) [Component B1.18, imazamox], the “Damage reduced by” value with corn [3] (setting [6]) is recorded as 40%.
`COc1cc(OC)nc(NC(=O)NS(=O)(=O)c2c(C(=O)O)c(Cl)nn2C)n1` [Component B1.17, halosulfuron]: in the data set with corn [3] (in vivo), the “Damage reduced by” value came to 100%.
Consider `COc1cc(OC)nc(NC(=O)NS(=O)(=O)c2c(C(=O)O)cnn2C)n1` [Component B1.32, pyrazosulfuron], for which, in the data set with corn [2] (setting [5]), the “Damage reduced by” value is 38%.
Turning to `COc1cc(OC)n2nc(S(=O)(=O)Nc3c(Cl)ccc(C)c3Cl)nc2n1` [Component B1.4, metosulam], the “Damage reduced by” value with corn [2] (in vivo) was found to be 33%.
For the compound `COc1cc(OC)nc(NC(=O)NS(=O)(=O)c2cc(CNS(C)(=O)=O)ccc2C(=O)O)n1` [Component B1.22, mesosulfuron], the “Damage reduced by” value in the data set on corn [2] (setting [5]) came out at 56%.
For `COc1nc(C)nc(N(C)C(=O)NS(=O)(=O)c2ccccc2C(=O)O)n1` [Component B1.10, tribenuron], the “Damage reduced by” value in the data set on corn [2] (setting [5]) turned out to be 50%; in the data set on corn [4], 60%.
For the compound `COc1cc(Cl)nc(NC(=O)NS(=O)(=O)c2ccccc2C(=O)O)n1` [Component B1.12, chlorimuron], the figures for the “Damage reduced by” value in the data set on corn [3] (setting [6]) and in the data set on corn [1] were 86% and 71%, respectively.
As for `COc1nn(C(=O)NS(=O)(=O)c2ccccc2OC(F)(F)F)c(=O)n1C` [Component B1.1, flucarbazone], the “Damage reduced by” value is 78% with corn [2] (setting [5]), 70% with corn [3] (setting [6]) and 80% with corn [1].
Take `CCc1cccc(C)c1N(C(=O)CCl)[C@@H](C)COC` [Component B5.2, S-metolachlor]: in the data set with corn [2] (setting [5]), the “Damage reduced by” value amounted to 78%.
Turning to `CSc1nnc(C(C)(C)C)c(=O)n1N` [Component B3.1, metribuzin], in the data set with corn [2] (setting [5]), the “Damage reduced by” value came out at 50%.
Turning to `Cc1ccn2nc(S(=O)(=O)Nc3c(F)cccc3F)nc2n1` [Component B1.16, flumetsulam], the figures for the “Damage reduced by” value in the data set with corn [2] (in vivo) and with corn [3] (in vivo) were 57% and 43%, respectively.
Regarding `COc1nc(C)nc(NC(=O)NS(=O)(=O)c2ccccc2OCCCl)n1` [Component B1.28, triasulfuron], the “Damage reduced by” value in the data set on corn [2] (in vivo) came to 71%.
With `COc1cc(OC)nc(NC(=O)NS(=O)(=O)c2cc(NC=O)ccc2C(=O)N(C)C)n1` [Component B1.2, foramsulfuron], the “Damage reduced by” value with corn [3] (in vivo) is on record as 100%.
On the same count and under the same terms, under `CCc1cnc(C2=NC(C)(C(C)C)C(=O)N2)c(C(=O)O)c1` (stereo not drawn) [Component B1.21, imazethapyr] stands 71%.
